Assay results as given in patent publication US9452986B2, “6-heteroaryloxy- or 6-aryloxy-quinoline-2-carboxamides and method of use” (AbbVie Inc., priority 2014, dated 2016).
Like-named read-outs stand apart in the source and are kept apart here.

Columns and labels:
osteoarthritic rats = test: Osteoarthritic (OA) pain induced by sodium monoiodoacetate (MIA), hind limb grip force; type: in vivo, rat; details: Rattus norvegicus, 480 h, rat, 20 days following MIA injection, hind limb grip force, read-out: OA MPE; for inhibition in vivo at 30 mg/kg: OA dose 30 mg/kg; for inhibition in vivo at 10 mg/kg: OA dose 10 mg/kg
In short: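 Male Sprague Dawley rats (150-175 g) received a single unilateral intra-articular knee injection of MIA (3 mg/rat) and were tested 20 days later. Peak hind limb grip force (CFmax, g force/kg body weight, mean of two trials) was scored blinded. % effect set vehicle as 0% and age-matched naïve rats as 100%.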

[1] = system: spinal nerve ligated rats; test: Rat spinal nerve ligation (SNL) model of neuropathic pain, paw withdrawal threshold; type: in vivo; details: SNL dose 100 mg/kg; rat, von Frey paw withdrawal threshold; read-out: SNL MPE
Excerpt: Rat Spinal Nerve Ligation (SNL) Model of Neuropathic Pain.
The male Sprague Dawley rats (Charles River Laboratories, Wilmington, Mass.), weighing 150-175 g at the time of surgery, were placed under isoflurane anesthesia and a 1.5 cm incision was made dorsal to the lumbosacral plexus. The paraspinal muscles (left side) were separated from the spinous processes, the left L5 and L6 spinal nerves isolated, and tightly ligated with 5-0 silk suture distal to the dorsal root ganglion. Care was taken to avoid ligating the L4 spinal nerve. Following spinal nerve ligation, a minimum of 7 days of recovery and no more than 3 weeks was allowed prior to the behavioral testing (mechanical sensitivity). Only rats with threshold scores ≦4.5 g were considered allodynic and utilized in pharmacological experiments.
Mechanical sensitivity was measured using calibrated von Frey filaments (Stoelting, Wood Dale, Ill.). […] The von Frey filaments were presented perpendicularly to the plantar surface of the selected hind paw, and then held in this position for approximately 8 seconds with enough force to cause a slight bend in the filament. Positive responses included an abrupt withdrawal of the hind paw from the stimulus, or flinching behavior immediately following removal of the stimulus. […] A percent maximal possible effect (% MPE) of testing compound was calculated according to the formula: (Log [compound−treated threshold]−Log [vehicle−treated threshold])/(Log [maximum threshold]−Log [vehicle−treated threshold])×100%, where the maximum threshold was equal to 15 g.
The animals were housed in Association for Assessment and Accreditation of Laboratory Animal Care (AAALAC) approved facilities at AbbVie Inc. in a temperature-regulated environment under a controlled 12-hour light-dark cycle, with lights on at 6:00 a.m. Food and water were available ad libitum at all times except during testing. All testing was done following procedures outlined in protocols approved by AbbVie Inc.s' Institutional Animal Care and Use Committee.

recombinant human Nav1.8 = recombinant human Nav1.8 (Homo sapiens (Human), UniProt Q9Y5Y9); test: FRET-based membrane potential assay, recombinant human sodium channel Nav1.8; type: cell-based
recombinant human Nav1.7 = recombinant human Nav1.7 (Homo sapiens (Human), UniProt Q15858); test: FRET-based membrane potential assay, recombinant human sodium channel Nav1.7; type: cell-based; details: read-out: FRET-Membrane Potential Nav1.7 IC50
In short: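 Channel activation used veratridine at its EC80, set by a dilution curve each experiment, together with Leiurus scorpion venom, added 3 min after compound. Membrane-potential ratio signals from FLIPR Tetra in HEPES-buffered HBSS were fitted to a four-parameter Hill equation for percent inhibition and IC50.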

[2] = HEK293 cells stably expressing recombinant human Nav1.8, veratridine + scorpion venom depolarization
[3] = HEK293 cells stably expressing recombinant human Nav1.7, veratridine + scorpion venom depolarization

Chain of recombinant human Nav1.8 (Q9Y5Y9 whole entry): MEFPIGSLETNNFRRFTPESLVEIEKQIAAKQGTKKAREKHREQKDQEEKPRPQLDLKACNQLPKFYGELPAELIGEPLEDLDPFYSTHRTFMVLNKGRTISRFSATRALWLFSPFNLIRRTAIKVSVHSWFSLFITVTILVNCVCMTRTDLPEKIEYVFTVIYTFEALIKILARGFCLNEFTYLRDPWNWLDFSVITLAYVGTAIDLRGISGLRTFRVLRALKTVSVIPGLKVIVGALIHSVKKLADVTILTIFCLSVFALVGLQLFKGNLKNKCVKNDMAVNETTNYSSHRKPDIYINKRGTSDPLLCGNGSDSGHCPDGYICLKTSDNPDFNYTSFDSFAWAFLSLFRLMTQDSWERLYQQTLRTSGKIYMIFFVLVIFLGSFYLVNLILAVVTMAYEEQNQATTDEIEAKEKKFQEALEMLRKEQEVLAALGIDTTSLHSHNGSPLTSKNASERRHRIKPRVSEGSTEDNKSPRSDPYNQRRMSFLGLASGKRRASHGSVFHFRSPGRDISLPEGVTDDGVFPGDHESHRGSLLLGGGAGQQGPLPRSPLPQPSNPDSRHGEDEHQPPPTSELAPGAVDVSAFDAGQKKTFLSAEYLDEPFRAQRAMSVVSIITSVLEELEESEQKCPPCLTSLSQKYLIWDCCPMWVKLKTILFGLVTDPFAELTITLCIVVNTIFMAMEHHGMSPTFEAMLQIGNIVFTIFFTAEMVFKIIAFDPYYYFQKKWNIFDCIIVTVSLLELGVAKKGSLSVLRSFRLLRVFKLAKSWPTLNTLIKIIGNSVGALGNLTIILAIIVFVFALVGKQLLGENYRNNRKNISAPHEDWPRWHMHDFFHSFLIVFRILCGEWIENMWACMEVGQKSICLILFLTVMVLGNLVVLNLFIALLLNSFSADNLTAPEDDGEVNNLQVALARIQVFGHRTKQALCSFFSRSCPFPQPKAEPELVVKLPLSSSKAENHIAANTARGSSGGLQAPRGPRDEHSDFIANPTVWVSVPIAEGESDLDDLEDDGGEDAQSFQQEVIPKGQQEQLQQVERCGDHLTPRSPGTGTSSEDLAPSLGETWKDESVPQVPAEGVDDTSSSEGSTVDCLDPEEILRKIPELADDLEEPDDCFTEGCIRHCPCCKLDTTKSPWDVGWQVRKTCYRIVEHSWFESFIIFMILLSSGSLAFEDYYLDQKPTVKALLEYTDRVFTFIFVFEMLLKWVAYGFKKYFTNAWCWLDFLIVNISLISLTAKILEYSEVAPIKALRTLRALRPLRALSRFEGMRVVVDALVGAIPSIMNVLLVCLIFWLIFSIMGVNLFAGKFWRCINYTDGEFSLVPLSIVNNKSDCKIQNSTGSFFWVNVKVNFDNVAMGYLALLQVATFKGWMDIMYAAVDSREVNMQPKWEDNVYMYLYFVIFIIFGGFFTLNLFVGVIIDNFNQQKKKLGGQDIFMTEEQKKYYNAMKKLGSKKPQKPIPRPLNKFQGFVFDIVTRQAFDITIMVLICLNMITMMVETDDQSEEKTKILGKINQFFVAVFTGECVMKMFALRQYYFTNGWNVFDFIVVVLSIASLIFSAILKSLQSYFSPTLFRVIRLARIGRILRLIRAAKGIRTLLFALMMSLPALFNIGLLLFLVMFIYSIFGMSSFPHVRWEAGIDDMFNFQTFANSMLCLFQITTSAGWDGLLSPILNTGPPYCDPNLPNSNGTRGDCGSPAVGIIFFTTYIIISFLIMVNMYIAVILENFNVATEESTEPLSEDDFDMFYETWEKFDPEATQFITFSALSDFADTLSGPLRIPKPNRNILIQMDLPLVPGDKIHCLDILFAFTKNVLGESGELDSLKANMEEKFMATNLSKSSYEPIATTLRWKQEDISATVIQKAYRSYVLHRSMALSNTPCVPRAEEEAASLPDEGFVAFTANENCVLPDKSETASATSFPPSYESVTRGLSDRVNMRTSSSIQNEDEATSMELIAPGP
Chain of recombinant human Nav1.7 (Q15858 whole entry): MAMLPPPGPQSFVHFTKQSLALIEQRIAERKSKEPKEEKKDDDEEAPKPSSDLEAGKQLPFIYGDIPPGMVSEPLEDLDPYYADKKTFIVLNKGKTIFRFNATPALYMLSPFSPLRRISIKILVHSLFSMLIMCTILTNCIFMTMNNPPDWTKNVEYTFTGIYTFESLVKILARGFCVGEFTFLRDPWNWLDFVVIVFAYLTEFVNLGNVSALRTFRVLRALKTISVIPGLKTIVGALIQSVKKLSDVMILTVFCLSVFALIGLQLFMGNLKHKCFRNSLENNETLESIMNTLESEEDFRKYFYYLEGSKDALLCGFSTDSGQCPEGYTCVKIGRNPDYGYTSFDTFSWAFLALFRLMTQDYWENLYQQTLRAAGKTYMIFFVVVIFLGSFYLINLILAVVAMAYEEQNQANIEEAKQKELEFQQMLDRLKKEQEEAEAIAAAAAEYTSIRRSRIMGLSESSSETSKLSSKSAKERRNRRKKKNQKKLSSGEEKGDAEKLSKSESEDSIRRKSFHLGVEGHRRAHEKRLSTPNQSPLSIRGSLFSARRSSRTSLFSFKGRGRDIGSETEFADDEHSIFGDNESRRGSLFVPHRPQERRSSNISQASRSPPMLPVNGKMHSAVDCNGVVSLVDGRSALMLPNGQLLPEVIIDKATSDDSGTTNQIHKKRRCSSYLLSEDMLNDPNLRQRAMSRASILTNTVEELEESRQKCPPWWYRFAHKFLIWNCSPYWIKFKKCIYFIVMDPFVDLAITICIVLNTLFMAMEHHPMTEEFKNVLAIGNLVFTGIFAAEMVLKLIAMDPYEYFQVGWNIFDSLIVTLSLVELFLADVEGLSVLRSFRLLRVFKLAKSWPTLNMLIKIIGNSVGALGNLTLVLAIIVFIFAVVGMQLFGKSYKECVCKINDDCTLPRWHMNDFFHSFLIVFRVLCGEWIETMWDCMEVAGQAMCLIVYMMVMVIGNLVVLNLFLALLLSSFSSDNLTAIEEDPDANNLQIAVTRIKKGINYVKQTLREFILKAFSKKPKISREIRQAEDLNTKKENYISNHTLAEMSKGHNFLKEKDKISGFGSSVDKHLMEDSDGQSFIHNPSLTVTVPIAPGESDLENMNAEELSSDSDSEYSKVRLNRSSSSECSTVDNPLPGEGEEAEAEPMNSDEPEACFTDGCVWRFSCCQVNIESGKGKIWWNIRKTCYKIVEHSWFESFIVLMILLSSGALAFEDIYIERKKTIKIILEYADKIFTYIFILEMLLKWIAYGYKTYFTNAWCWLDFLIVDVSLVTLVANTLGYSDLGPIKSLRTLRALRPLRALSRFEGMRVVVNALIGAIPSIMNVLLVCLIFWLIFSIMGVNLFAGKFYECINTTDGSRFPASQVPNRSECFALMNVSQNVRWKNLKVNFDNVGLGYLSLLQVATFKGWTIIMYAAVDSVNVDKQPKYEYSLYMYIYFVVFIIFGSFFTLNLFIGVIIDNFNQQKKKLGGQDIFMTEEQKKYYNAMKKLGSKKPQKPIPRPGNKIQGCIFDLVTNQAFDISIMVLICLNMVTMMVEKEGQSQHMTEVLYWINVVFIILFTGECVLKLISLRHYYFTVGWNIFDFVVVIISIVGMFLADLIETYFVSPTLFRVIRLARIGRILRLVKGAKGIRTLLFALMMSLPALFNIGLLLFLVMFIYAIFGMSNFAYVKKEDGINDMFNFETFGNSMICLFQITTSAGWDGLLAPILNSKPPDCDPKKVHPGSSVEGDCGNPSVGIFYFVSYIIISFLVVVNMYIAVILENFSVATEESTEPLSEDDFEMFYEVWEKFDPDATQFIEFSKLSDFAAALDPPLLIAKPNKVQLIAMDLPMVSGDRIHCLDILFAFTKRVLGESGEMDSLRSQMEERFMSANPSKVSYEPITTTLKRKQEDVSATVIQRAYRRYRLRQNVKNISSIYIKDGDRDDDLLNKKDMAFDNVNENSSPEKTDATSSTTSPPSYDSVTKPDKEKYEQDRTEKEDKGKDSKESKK

Compound	inhibition in vivo at 30 mg/kg (osteoarthritic rats) [%]	inhibition in vivo at 100 mg/kg [1] [%]	IC50 (recombinant human Nav1.8; [2]) [nM]	IC50 (recombinant human Nav1.7) [nM]	IC50 (recombinant human Nav1.7; [3]) [nM]	IC50 (recombinant human Nav1.8) [nM]	inhibition in vivo at 10 mg/kg (osteoarthritic rats) [%]
COC[C@H]1CN(C(=O)c2ccc3cc(Oc4ccc(C(F)(F)F)cn4)ccc3n2)CCN1 [Example 31, [(3R)-3-(methoxymethyl)piperazin-1-yl](6-{[5-(trifluoromethyl)pyridin-2-yl]oxy}quinolin-2-yl)methanone]	94	64	1860	619			
O=C(NCC(F)(F)F)c1ccc2cc(Oc3ccc(C(F)(F)F)cn3)ccc2n1 [Example 344, N-(2,2,2-trifluoroethyl)-6-{[5-(trifluoromethyl)pyridin-2-yl]oxy}quinoline-2-carboxamide]	59	76	670		2100		
O=C(c1ccc2cc(Oc3ccc(C(F)(F)F)cn3)ccc2n1)N1C[C@@H](F)C[C@H]1CO [Example 50, [(2S,4S)-4-fluoro-2-(hydroxymethyl)pyrrolidin-1-yl](6-{[5-(trifluoromethyl)pyridin-2-yl]oxy}quinolin-2-yl)methanone]	81	94			12200		
CN(C)C(=O)CNC(=O)c1ccc2cc(Oc3ccc(C(F)(F)F)cn3)ccc2n1 [Example 33, N-[2-(dimethylamino)-2-oxoethyl]-6-{[5-(trifluoromethyl)pyridin-2-yl]oxy}quinoline-2-carboxamide]	61	50		471		740	
O=C(c1ccc2cc(Oc3ccc(C(F)(F)F)cn3)ccc2n1)N1CC(N2CCOCC2)C1 [Example 6, [3-(morpholin-4-yl)azetidin-1-yl](6-{[5-(trifluoromethyl)pyridin-2-yl]oxy}quinolin-2-yl)methanone]		27			2930	4610	72
O=C(c1ccc2cc(Oc3ccc(C(F)(F)F)cn3)ccc2n1)N1CCC(N2CCOCC2)CC1 [Example 11, [4-(morpholin-4-yl)piperidin-1-yl](6-{[5-(trifluoromethyl)pyridin-2-yl]oxy}quinolin-2-yl)methanone]		34	1690		1610		72
COCCNC(=O)c1ccc2cc(Oc3ccc(C(F)(F)F)cn3)ccc2n1 [Example 22, N-(2-methoxyethyl)-6-{[5-(trifluoromethyl)pyridin-2-yl]oxy}quinoline-2-carboxamide]	73	72	3540		1980		
O=C(NC1CCS(=O)(=O)C1)c1ccc2cc(Oc3ccc(C(F)(F)F)cn3)ccc2n1 (stereo not shown) [Example 2, N-(1,1-dioxidotetrahydrothiophen-3-yl)-6-{[5-(trifluoromethyl)pyridin-2-yl]oxy}quinoline-2-carboxamide]	85	54	648		504		
O=C(NC1CC(F)(F)C1)c1ccc2cc(Oc3ccc(C(F)(F)F)cn3)ccc2n1 [Example 59, N-(3,3-difluorocyclobutyl)-6-{[5-(trifluoromethyl)pyridin-2-yl]oxy}quinoline-2-carboxamide]	83	84		1700			
O=C(c1ccc2cc(Oc3ccc(C(F)(F)F)cn3)ccc2n1)N1CCC(F)C1 (stereo not shown) [Example 35, (3-fluoropyrrolidin-1-yl)(6-{[5-(trifluoromethyl)pyridin-2-yl]oxy}quinolin-2-yl)methanone]		74			1270		79
